Patent EP0048614B1, “1-N-acylated and 1-N-alkylated derivatives of 4-0-substituted -2-deoxystreptamine aminoglycosides” (ELI LILLY AND COMPANY, priority 1980, dated 1982)
Values after ≈ are worked out from the molar mass of the structure shown. Values joined by “and” are separate entries in the source; they are usually repeats but may differ in a detail not shown here. Equal entries are not always repeated. Where two headings read alike, the source gives them in different places.

What was measured:
[1] = tested on: Staphylococcus aureus 3055; test: Subcutaneous therapy of experimental bacterial infection in mice (ED50); assay type: in vivo; settings: Staphylococcus aureus, 3055, sc
Method: Table II illustrates the effective dose (ED50, the effective dose to protect 50 percent of the test animals) for representative compounds of this invention against an experimental bacterial infection in mice.
The ED50 values were determined as described by W. E. Wick et al., Journal of Bacteriology, 81 [No. 2], 233-235 (1961).

B. subtilis X12 = test: Bioautography of thin layer chromatography plate; assay type: cell-based; settings: TLC plate of the reaction mixture against B. subtilis X12
Method: Apramycin (54 mg, 0.1 mmol) was dissolved in water (1 ml). Zinc acetate dihydrate (100 mg, 0.4 mmol) was added to this solution and the mixture was briefly sonicated to disperse crystals of zinc acetate. The ' mixture was diluted with dimethylformamide (5 ml), 1-iodo-n-butane (0.115 ml), 1 mmol) was added and this reaction mixture was stirred at room temperature for 4 days.

[2] = tested on: Streptococcus pyogenes C203; test: MIC, standard agar dilution test; assay type: cell-based; settings: Streptococcus pyogenes C203; agar dilution; read-out: Minimum Inhibitory Concentration
Source text: (§1) The antibacterial activity of the deprotected compounds of this invention is illustrated by the following in vitro and in vivo test data obtained with representative compounds. In Table I, the minimum inhibitory concentration (MIC) for representative compounds against a wide range of gram-positive and gram-negative bacteria is presented. The MIC values were obtained by the standard agar dilution test.

Serratia marcescens X99 = test: MIC, standard agar dilution test; assay type: cell-based
Source text: as §1

Escherichia coli N10 = test: MIC, standard agar dilution test; assay type: cell-based; settings: agar dilution
Source text: as §1

[3] = tested on: Staphylococcus epidermidis EPI1; test: MIC, standard agar dilution test; assay type: cell-based; settings: Staphylococcus epidermidis EPI1; agar dilution; read-out: Minimum Inhibitory Concentration
Source text: as §1

[4] = tested on: Bordetella bronchiseptica 16; test: MIC, standard agar dilution test; assay type: cell-based; settings: Bordetella bronchiseptica 16; agar dilution; read-out: Minimum Inhibitory Concentration
Source text: as §1

[5] = tested on: Streptococcus group D X66; test: MIC, standard agar dilution test; assay type: cell-based; settings: DX66; Streptococcus group D X66; agar dilution; read-out: Minimum Inhibitory Concentration
Source text: as §1

Proteus rettgeri C24 = test: MIC, standard agar dilution test; assay type: cell-based; settings: Providencia rettgeri; Proteus rettgeri C24; agar dilution; read-out: Minimum Inhibitory Concentration
Source text: as §1

[6] = tested on: Staphylococcus aureus V41; test: MIC, standard agar dilution test; assay type: cell-based; settings: Staphylococcus aureus V41; agar dilution; read-out: Minimum Inhibitory Concentration
Source text: as §1

[7] = tested on: Salmonella heidelberg X514; test: MIC, standard agar dilution test; assay type: cell-based; settings: Salmonella enterica; Salmonella heidelberg X514; agar dilution; read-out: Minimum Inhibitory Concentration
Source text: as §1

Proteus rettgeri PR7 = test: MIC, standard agar dilution test; assay type: cell-based
Source text: as §1

Escherichia coli EC14 = test: MIC, standard agar dilution test; assay type: cell-based; settings: Escherichia coli EC14; agar dilution; read-out: Minimum Inhibitory Concentration
Source text: as §1

[8] = tested on: Klebsiella pneumoniae KAE; test: MIC, standard agar dilution test; assay type: cell-based; settings: Klebsiella pneumoniae KAE; agar dilution; read-out: Minimum Inhibitory Concentration
Source text: as §1

[9] = tested on: Enterobacter cloacae 265A; test: MIC, standard agar dilution test; assay type: cell-based; settings: Enterobacter cloacae 265A; agar dilution; read-out: Minimum Inhibitory Concentration
Source text: as §1

[10] = tested on: Staphylococcus aureus S13E; test: MIC, standard agar dilution test; assay type: cell-based; settings: read-out: Minimum Inhibitory Concentration
Source text: as §1

[11] = tested on: Hemophilus influenzae C.L.; test: MIC, standard agar dilution test; assay type: cell-based; settings: Hemophilus influenzae C.L.
Source text: as §1

[12] = tested on: Streptococcus group D 9960; test: MIC, standard agar dilution test; assay type: cell-based; settings: D9960; Streptococcus group D 9960; agar dilution; read-out: Minimum Inhibitory Concentration
Source text: as §1

[13] = tested on: Enterobacter aerogenes C32; test: MIC, standard agar dilution test; assay type: cell-based; settings: Klebsiella aerogenes; Enterobacter aerogenes C32; agar dilution; read-out: Minimum Inhibitory Concentration
Source text: as §1

Shigella sonnei N9 = test: MIC, standard agar dilution test; assay type: cell-based; settings: read-out: Minimum Inhibitory Concentration
Source text: as §1

[14] = tested on: Pseudomonas aeruginosa Ps18; test: MIC, standard agar dilution test; assay type: cell-based; settings: Pseudomonas aeruginosa Ps18; agar dilution; read-out: Minimum Inhibitory Concentration
Source text: as §1

[15] = tested on: Streptococcus pneumoniae Park I; test: MIC, standard agar dilution test; assay type: cell-based; settings: Streptococcus pneumoniae Park I; agar dilution; read-out: Minimum Inhibitory Concentration
Source text: as §1

[16] = tested on: Salmonella typhimurium 1335; test: MIC, standard agar dilution test; assay type: cell-based; settings: Salmonella enterica; Salmonella typhimurium 1335; agar dilution; read-out: Minimum Inhibitory Concentration
Source text: as §1

Hemophilus influenzae 76 = test: MIC, standard agar dilution test; assay type: cell-based
Source text: as §1

[17] = tested on: Enterobacter aerogenes X68; test: MIC, standard agar dilution test; assay type: cell-based
Source text: as §1

[18] = tested on: Pseudomonas aeruginosa X239; test: MIC, standard agar dilution test; assay type: cell-based; settings: Pseudomonas aeruginosa X239; agar dilution; read-out: Minimum Inhibitory Concentration
Source text: as §1

[19] = tested on: Staphylococcus aureus X1.1; test: MIC, standard agar dilution test; assay type: cell-based; settings: Staphylococcus aureus X1.1, agar dilution
Source text: as §1

[20] = tested on: Citrobacter freundii CF17; test: MIC, standard agar dilution test; assay type: cell-based; settings: Citrobacter freundii CF17; agar dilution; read-out: Minimum Inhibitory Concentration
Source text: as §1

[21] = tested on: Klebsiella pneumoniae X26; test: MIC, standard agar dilution test; assay type: cell-based; settings: Klebsiella pneumoniae X26; agar dilution; read-out: Minimum Inhibitory Concentration
Source text: as §1

[22] = tested on: Enterobacter aerogenes EB17; test: MIC, standard agar dilution test; assay type: cell-based; settings: Klebsiella aerogenes; Enterobacter aerogenes EB17; agar dilution; read-out: Minimum Inhibitory Concentration
Source text: as §1

Escherichia coli TEM = test: MIC, standard agar dilution test; assay type: cell-based; settings: read-out: Minimum Inhibitory Concentration
Source text: as §1

Proteus inconstans PR33 = test: MIC, standard agar dilution test; assay type: cell-based; settings: Providencia alcalifaciens; Proteus inconstans PR33; agar dilution; read-out: Minimum Inhibitory Concentration
Source text: as §1

[23] = tested on: Pseudomonas aeruginosa X528; test: MIC, standard agar dilution test; assay type: cell-based; settings: Pseudomonas aeruginosa X528; agar dilution; read-out: Minimum Inhibitory Concentration
Source text: as §1

[24] = tested on: Staphylococcus aureus X400; test: MIC, standard agar dilution test; assay type: cell-based
Source text: as §1

Enterobacter cloacae EB5 = test: MIC, standard agar dilution test; assay type: cell-based; settings: Enterobacter cloacae EB5; agar dilution; read-out: Minimum Inhibitory Concentration
Source text: as §1

[25] = tested on: Staphylococcus epidermidis EPI2; test: MIC, standard agar dilution test; assay type: cell-based; settings: Staphylococcus epidermidis EPI2; agar dilution; read-out: Minimum Inhibitory Concentration
Source text: as §1

Proteus morganii PR15 = test: MIC, standard agar dilution test; assay type: cell-based; settings: Morganella morganii; Proteus morganii PR15; agar dilution; read-out: Minimum Inhibitory Concentration
Source text: as §1

Serratia marcescens SE3 = test: MIC, standard agar dilution test; assay type: cell-based; settings: Serratia marcescens SE3; agar dilution; read-out: Minimum Inhibitory Concentration
Source text: as §1

Escherichia coli X563 = test: Standard disc-plate method, zone of inhibition against apramycin-resistant strain; assay type: cell-based; settings: 15 mcg/disc; apramycin-resistant E. coli X563; one value for each of two test runs per compound; listed as 2
Source text: Table III, shown below, illustrates the in vitro activity of 1-N-(S-y-amino-a-hydroxybutyryl)apramycin, 1-N-(RS-y-amino-a-hydroxybutyryl)apramycin, and 1-N-(S-y-amino-a-hydroxybutyryl)nebramine against an apramycin resistant strain of E. coli. The results below were obtained using the standard disc-plate method. The numerical values are the diameters in millimeters of the zones of inhibition observed against this bacterium. Compounds substituted with the y-amino-a-hydroxybutyryl and analogous side chains are useful in treating infections caused by apramycin resistant bacteria such as the one above.
The test organism (E. coli X563) used in the experiments summarized in Table III is resistant to apramycin due to a 3-N-acetyltransferase which enzymatically inactivates apramycin.

## NCC[C@H](O)C(=O)N[C@@H]1C[C@H](N)[C@@H](O[C@H]2O[C@H](CN)[C@@H](O)C[C@H]2N)[C@H](O)[C@H]1O
[1]; mg/kg × 2 subcutaneous doses at 1 and 5 hours post infection, mice challenged with 1,794 LD50's, read-out: Effective Dose (ED50)
  ED50: 8.75 mg/kg

## CCCCNC1CC(N)C(OC2OC3C(CC2N)OC(OC2OC(CO)C(N)C(O)C2O)C(NC)C3O)C(O)C1O (stereo not drawn) [1-N-(n-butyl)apramycin]
B. subtilis X12
  zone of inhibition (bioautography): good zone of inhibition

## NCC[C@H](O)C(=O)N[C@@H]1C[C@H](N)[C@@H](O[C@H]2O[C@H](CN)[C@@H](O)C[C@H]2N)[C@H](O)[C@H]1O [Test Compound 5, 1-N-(S-γ-amino-α-hydroxybutyryl)nebramine]
[2]
  MIC: 16 µg/mL (≈ 39.3 µM)
Serratia marcescens X99; Serratia marcescens X99, read-out: Minimum Inhibitory Concentration
  MIC: 8 µg/mL (≈ 19.6 µM)
Escherichia coli N10; Escherichia coli, N10, Escherichia coli N10, read-out: Minimum Inhibitory Concentration
  MIC: 8 µg/mL (≈ 19.6 µM)
[3]
  MIC: 8 µg/mL (≈ 19.6 µM)
[4]
  MIC: 32 µg/mL (≈ 78.5 µM)
[5]
  MIC: > 128 µg/mL
Proteus rettgeri C24
  MIC: 8 µg/mL (≈ 19.6 µM)
[6]
  MIC: 8 µg/mL (≈ 19.6 µM)
[7]
  MIC: 16 µg/mL (≈ 39.3 µM)
Proteus rettgeri PR7; Providencia rettgeri, Proteus rettgeri PR7, read-out: Minimum Inhibitory Concentration
  MIC: 8 µg/mL (≈ 19.6 µM)
Escherichia coli EC14
  MIC: 16 µg/mL (≈ 39.3 µM)
[8]
  MIC: 8 µg/mL (≈ 19.6 µM)
[9]
  MIC: 32 µg/mL (≈ 78.5 µM)
[10]
  MIC: 8 µg/mL (≈ 19.6 µM)
[11]; Haemophilus influenzae, read-out: Minimum Inhibitory Concentration
  MIC: 16 µg/mL (≈ 39.3 µM)
[12]
  MIC: > 128 µg/mL
[13]
  MIC: 8 µg/mL (≈ 19.6 µM)
Shigella sonnei N9
  MIC: 16 µg/mL (≈ 39.3 µM)
[14]
  MIC: 32 µg/mL (≈ 78.5 µM)
[15]
  MIC: 16 µg/mL (≈ 39.3 µM)
[16]
  MIC: 8 µg/mL (≈ 19.6 µM)
Hemophilus influenzae 76; Haemophilus influenzae, Hemophilus influenzae 76, read-out: Minimum Inhibitory Concentration
  MIC: 16 µg/mL (≈ 39.3 µM)
[17]; Klebsiella aerogenes, Enterobacter aerogenes X68, read-out: Minimum Inhibitory Concentration
  MIC: 8 µg/mL (≈ 19.6 µM)
[18]
  MIC: 32 µg/mL (≈ 78.5 µM)
[19]; read-out: Minimum Inhibitory Concentration
  MIC: 8 µg/mL (≈ 19.6 µM)
[20]
  MIC: 16 µg/mL (≈ 39.3 µM)
[21]
  MIC: 4 µg/mL (≈ 9.82 µM)
[22]
  MIC: 8 µg/mL (≈ 19.6 µM)
Escherichia coli TEM
  MIC: 2 µg/mL (≈ 4.91 µM)
Proteus inconstans PR33
  MIC: 8 µg/mL (≈ 19.6 µM)
[23]
  MIC: 64 µg/mL (≈ 157 µM)
[24]; Staphylococcus aureus X400, read-out: Minimum Inhibitory Concentration
  MIC: 64 µg/mL (≈ 157 µM)
Enterobacter cloacae EB5
  MIC: 16 µg/mL (≈ 39.3 µM)
[25]
  MIC: 4 µg/mL (≈ 9.82 µM)
Proteus morganii PR15
  MIC: 32 µg/mL (≈ 78.5 µM)
Serratia marcescens SE3
  MIC: 16 µg/mL (≈ 39.3 µM)

## CCCCNC1CC(N)C(O)C(O)C1OC1OC2C(CC1N)OC(OC1OC(CO)C(N)C(O)C1O)C(NC)C2O (stereo not drawn) [3-N-(n-butyl)apramycin]
B. subtilis X12
  zone of inhibition (bioautography): not

## C=CCNC1CC(N)C(OC2OC3C(CC2N)OC(OC2OC(CO)C(N)C(O)C2O)C(NC)C3O)C(O)C1O (stereo not drawn) [1-N-allylapramycin]
B. subtilis X12
  zone of inhibition (bioautography): good zone of inhibition

## CNC1C(OC2OC(CO)C(N)C(O)C2O)OC2CC(N)C(OC3C(N)CC(NC(=O)C(O)CCN)C(O)C3O)OC2C1O (stereo not drawn)
[1]; read-out: Effective Dose (ED50), mg/kg × 2 subcutaneous doses at 1 and 5 hours post infection, mice challenged with 331 LD50's
  ED50: 7.1 mg/kg

## CNC1C(OC2OC(CO)C(N)C(O)C2O)OC2CC(N)C(OC3C(N)CC(NCc4ccccc4)C(O)C3O)OC2C1O (stereo not drawn) [1-N-benzylapramycin]
B. subtilis X12
  zone of inhibition (bioautography): zone of inhibition

## CNC1C(OC2OC(CO)C(N)C(O)C2O)OC2CC(N)C(OC3C(N)CC(NC(=O)C(O)CCN)C(O)C3O)OC2C1O (stereo not drawn) [Test Compound 2, 1-N-(RS-γ-amino-α-hydroxybutyryl)apramycin]
Serratia marcescens X99; Serratia marcescens X99
  Minimum Inhibitory Concentration: 16 µg/mL
Escherichia coli N10; Escherichia coli N10
  Minimum Inhibitory Concentration: 16 µg/mL
Proteus rettgeri PR7; Proteus rettgeri PR7
  Minimum Inhibitory Concentration: 4 µg/mL
[11]
  Minimum Inhibitory Concentration: 32 µg/mL
Hemophilus influenzae 76; Hemophilus influenzae 76
  Minimum Inhibitory Concentration: 32 µg/mL
[17]; Enterobacter aerogenes X68
  Minimum Inhibitory Concentration: 16 µg/mL
[19]
  Minimum Inhibitory Concentration: 8 µg/mL
[24]; Staphylococcus aureus X400
  Minimum Inhibitory Concentration: 64 µg/mL
Escherichia coli X563
  Zone of Inhibition (diameter in mm): 12.5 mm and 13.6 mm
